Holding throughout (assay type): cell-based
For one test, the target named is T1, human GLP-1 R (Homo sapiens, UniProt P43220).
T1 construct: expressed in transfected cells
Briefly: cAMP induction in HEK293 cells expressing human GLP-1 R (AlphaScreen cAMP kit). Conditions: average EC50, cAMP, HEK293 cells expressing human GLP-1 R, read-out: GLP1 R (EC50 in nM). In general terms: In Alpha technology, singlet oxygen from a donor bead excites a nearby acceptor bead.

The target in another test is T2, human GCG R (Homo sapiens, UniProt P47871).
T2 construct: expressed in transfected cells
Put plainly: cAMP induction in HEK293 cells expressing human GCG R (AlphaScreen cAMP kit).

The next test addresses T3, human GIP R (Homo sapiens, UniProt P48546).
T3 construct: expressed in transfected cells
T3 sequence (P48546 22-466): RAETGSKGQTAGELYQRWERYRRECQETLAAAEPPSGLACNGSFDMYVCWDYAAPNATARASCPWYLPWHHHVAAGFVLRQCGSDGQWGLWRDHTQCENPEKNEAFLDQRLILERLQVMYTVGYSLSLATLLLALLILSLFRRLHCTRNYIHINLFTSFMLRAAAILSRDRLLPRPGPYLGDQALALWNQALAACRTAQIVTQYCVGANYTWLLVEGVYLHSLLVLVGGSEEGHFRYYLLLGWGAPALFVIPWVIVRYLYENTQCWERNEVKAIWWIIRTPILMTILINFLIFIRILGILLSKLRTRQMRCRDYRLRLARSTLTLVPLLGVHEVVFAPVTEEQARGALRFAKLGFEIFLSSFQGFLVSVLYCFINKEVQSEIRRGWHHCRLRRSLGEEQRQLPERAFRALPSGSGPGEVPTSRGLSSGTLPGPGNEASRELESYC
Put plainly: cAMP induction in HEK293 cells expressing human GIP R (AlphaScreen cAMP kit).

Setting [1] is: GIP R (EC50 in nM), Table 2, average EC50, cAMP.
The mark [2] stands for this setting: GIP R (EC50 in nM), Table 2b (most comprehensive data), average EC50, cAMP.
[3] abbreviates: Table 2b (most comprehensive data).
[4] abbreviates: Table 2b (most comprehensive data), average EC50, cAMP, HEK293 cells expressing human GCG R, read-out: GCG R (EC50 in nM).
The mark [5] stands for this setting: Table 2b (most comprehensive data), average EC50, cAMP, read-out: GIP R (EC50 in nM).

Like-named read-outs stand apart in the source and are kept apart here. Numbered stars: 1 amine (or outer) side, 2 acyl side, 3 side chain; on linkers, the order of the positions; unused ones are H or OH. Square brackets hold non-standard residues; d marks the D form. Side chains are listed from the residue outwards. Peptide text beside a SMILES is read from it. * marks the point of attachment. γGlu = O=C(O)[C@H](CCC(=O)[*:2])N[*:1]; Stearoyl = CCCCCCCCCCCCCCCCCC(=O)*; AEEA = NCCOCCOCC(=O)O; Aib = CC(C)(N)C(=O)O

The EC50 is the midpoint of the concentration-response curve.

T2 sequence (P47871 26-477): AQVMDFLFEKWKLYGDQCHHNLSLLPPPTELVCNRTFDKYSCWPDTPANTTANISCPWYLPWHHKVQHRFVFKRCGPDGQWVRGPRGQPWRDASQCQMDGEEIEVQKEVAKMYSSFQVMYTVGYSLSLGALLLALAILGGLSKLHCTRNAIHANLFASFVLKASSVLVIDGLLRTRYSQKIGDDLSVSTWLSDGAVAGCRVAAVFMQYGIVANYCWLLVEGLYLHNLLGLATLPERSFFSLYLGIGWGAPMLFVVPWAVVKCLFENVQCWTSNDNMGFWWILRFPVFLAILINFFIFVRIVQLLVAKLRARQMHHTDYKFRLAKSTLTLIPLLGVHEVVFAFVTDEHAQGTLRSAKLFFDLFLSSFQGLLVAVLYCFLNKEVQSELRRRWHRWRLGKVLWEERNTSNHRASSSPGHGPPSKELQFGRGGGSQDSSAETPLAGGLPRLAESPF
T1 sequence (P43220 24-463): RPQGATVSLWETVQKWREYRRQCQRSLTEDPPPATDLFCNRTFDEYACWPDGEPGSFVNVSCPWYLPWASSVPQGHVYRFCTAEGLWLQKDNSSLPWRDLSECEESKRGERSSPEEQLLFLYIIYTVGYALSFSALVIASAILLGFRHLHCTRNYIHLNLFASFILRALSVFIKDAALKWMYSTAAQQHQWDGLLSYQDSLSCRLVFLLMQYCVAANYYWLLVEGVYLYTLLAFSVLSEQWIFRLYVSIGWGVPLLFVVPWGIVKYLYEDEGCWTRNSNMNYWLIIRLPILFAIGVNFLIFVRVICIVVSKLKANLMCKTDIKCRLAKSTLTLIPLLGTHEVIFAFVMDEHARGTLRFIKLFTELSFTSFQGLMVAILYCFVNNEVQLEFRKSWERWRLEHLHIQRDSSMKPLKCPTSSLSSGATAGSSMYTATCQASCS
Protocol for human GLP-1 R: Briefly, HEK293 cells expressing the human GIP R, GLP-1 R or GCG R (stable cell lines generated through transfection of the cDNA for human GIP R, GLP-1 R or GCG R and selection of stable clones) were seeded at 30,000 cells/well in 96-well microtiter plates coated with 0.01% poly-L-lysine, and grown for 1 day in culture in 200 μl growth medium (DMEM, 10% FCS, Penicillin (100 IU/ml), Streptomycin (100 μg/ml)). On the day of analysis, growth medium was removed and the cells were washed once with 150 μl Tyrode's buffer (Tyrode's Salts (9.6 g/l), 10 mM HEPES, pH 7.4). […] The Assay buffer was removed and cells are lysed in 80 μl Lysis buffer (0.1% w/v BSA, 5 mM HEPES, 0.3% v/v Tween-20) per well. From each well 10 μl of lysed cells were transferred to a 384-well plate and mixed with 15 μl bead-mix (1 Unit/15 μl anti-cAMP Acceptor Beads, 1 Unit/15 μl Donor Beads, and 1 Unit/15 μl Biotinylated cAMP in Assay Buffer). The plates were mixed and incubated in the dark for an hour at room temperature before measuring using an Envision™ plate reader (Perkin-Elmer).
The resulting cAMP curves were plotted as absolute cAMP concentrations (nM) over log (test compound concentration) and analyzed using the curve fitting program XLfit.
Parameters calculated to describe both the potency as well as the agonistic activity of each test compound on the receptors were:
EC50, a concentration resulting in a half-maximal elevation of cAMP levels, reflecting the potency of the test compound.

As for `CC[C@H](C)[C@H](NC(=O)[C@H](CO)NC(=O)[C@H](Cc1ccc(O)cc1)NC(=O)[C@H](CC(=O)O)NC(=O)[C@H](CO)NC(=O)[C@@H](NC(=O)[C@H](Cc1ccccc1)NC(=O)[C@@H](NC(=O)CNC(=O)[C@H](CCC(N)=O)NC(=O)C(C)(C)NC(=O)[C@@H](N)Cc1ccc(O)cc1)[C@@H](C)O)[C@@H](C)O)C(=O)N[C@@H](Cc1ccc(O)cc1)C(=O)N[C@@H](CC(C)C)C(=O)N[C@@H](CC(=O)O)C(=O)N[C@@H](CO)C(=O)N[C@@H](CCCCN)C(=O)N[C@@H](C)C(=O)N[C@@H](C)C(=O)N[C@@H](Cc1c[nH]cn1)C(=O)N[C@@H](CC(=O)O)C(=O)N[C@@H](Cc1ccccc1)C(=O)N[C@H](C(=O)N[C@@H](CCC(=O)O)C(=O)N[C@@H](Cc1c[nH]c2ccccc12)C(=O)N[C@@H](CC(C)C)C(=O)N[C@@H](CC(C)C)C(=O)N[C@@H](CO)C(=O)N[C@@H](C)C(N)=O)C(C)C` [Compound 5] (HELM PEPTIDE1{Y.[Aib].Q.G.T.F.T.S.D.Y.S.I.Y.L.D.S.K.A.A.H.D.F.V.E.W.L.L.S.A.[am]}$$$$V2.0), the EC50 at human GLP-1 R (Table 2) was 0.0092 nM; at human GCG R it was 0.065 nM; at human GIP R (setting [1]), 0.17 nM; on human GIP R (setting [2]) it was 0.009 nM.
In the same order, the values of `CC(C)C[C@H](NC(=O)[C@H](CC(C)C)NC(=O)[C@H](Cc1c[nH]c2ccccc12)NC(=O)[C@H](CCC(=O)O)NC(=O)[C@@H](NC(=O)[C@H](Cc1ccccc1)NC(=O)[C@H](CCC(=O)O)NC(=O)[C@H](CCCCN)NC(=O)[C@H](CCC(N)=O)NC(=O)[C@H](C)NC(=O)[C@H](CCCCN)NC(=O)[C@H](CCCCN)NC(=O)[C@H](CCC(=O)O)NC(=O)[C@H](CC(C)C)NC(=O)[C@H](Cc1ccc(O)cc1)NC(=O)[C@H](CCCCN)NC(=O)[C@H](CO)NC(=O)[C@H](Cc1ccc(O)cc1)NC(=O)[C@H](CC(=O)O)NC(=O)[C@H](CO)NC(=O)[C@@H](NC(=O)[C@H](Cc1ccccc1)NC(=O)[C@@H](NC(=O)CNC(=O)[C@H](CCC(N)=O)NC(=O)C(C)(C)NC(=O)[C@@H](N)Cc1ccc(O)cc1)[C@@H](C)O)[C@@H](C)O)C(C)C)C(=O)N[C@@H](CO)C(=O)N[C@@H](C)C(N)=O` [Compound 22] (HELM PEPTIDE1{Y.[Aib].Q.G.T.F.T.S.D.Y.S.K.Y.L.E.K.K.A.Q.K.E.F.V.E.W.L.L.S.A.[am]}$$$$V2.0) are 0.028 nM, 0.76 nM, 0.18 nM and 0.03 nM.
As to `CC(C)C[C@H](NC(=O)[C@H](C)NC(=O)[C@H](CCCCN)NC(=O)[C@H](CO)NC(=O)[C@H](Cc1ccc(O)cc1)NC(=O)[C@H](CC(=O)O)NC(=O)[C@H](CO)NC(=O)[C@@H](NC(=O)[C@H](Cc1ccccc1)NC(=O)[C@@H](NC(=O)CNC(=O)[C@H](CCC(N)=O)NC(=O)C(C)(C)NC(=O)[C@@H](N)Cc1ccc(O)cc1)[C@@H](C)O)[C@@H](C)O)C(=O)N[C@@H](CC(=O)O)C(=O)N[C@@H](CCC(=O)O)C(=O)N[C@@H](CCCCN)C(=O)N[C@@H](C)C(=O)N[C@@H](C)C(=O)N[C@@H](CCCCN)C(=O)N[C@@H](CCC(=O)O)C(=O)N[C@@H](Cc1ccccc1)C(=O)N[C@H](C(=O)N[C@@H](CCC(=O)O)C(=O)N[C@@H](Cc1c[nH]c2ccccc12)C(=O)N[C@@H](CC(C)C)C(=O)N[C@@H](CC(C)C)C(=O)N[C@@H](CO)C(=O)N[C@@H](C)C(N)=O)C(C)C` [Compound 21] (HELM PEPTIDE1{Y.[Aib].Q.G.T.F.T.S.D.Y.S.K.A.L.D.E.K.A.A.K.E.F.V.E.W.L.L.S.A.[am]}$$$$V2.0), the 50% effective concentration (EC50) was determined as 0.014 nM on human GLP-1 R (Table 2); 0.1 nM on human GLP-1 R (setting [3]); 0.1 nM on human GCG R; 0.18 nM at human GIP R (setting [1]); 0.015 nM on human GIP R (setting [2]).
On to `CCCCCCCCCCCCCCCCCC(=O)N[C@@H](CCC(=O)NCCOCCOCC(=O)NCCOCCOCC(=O)NCCCC[C@H](NC(=O)[C@H](CCCCN)NC(=O)[C@H](CCC(=O)O)NC(=O)[C@H](CC(C)C)NC(=O)[C@H](C)NC(=O)[C@@H](NC(=O)[C@H](CO)NC(=O)[C@H](CC(C)C)NC(=O)[C@H](CC(=O)O)NC(=O)[C@H](CO)NC(=O)[C@@H](NC(=O)[C@H](Cc1ccccc1)NC(=O)[C@@H](NC(=O)CNC(=O)[C@H](CCC(N)=O)NC(=O)C(C)(C)NC(=O)[C@@H](N)Cc1ccc(O)cc1)[C@@H](C)O)[C@@H](C)O)[C@@H](C)CC)C(=O)N[C@@H](C)C(=O)N[C@@H](CCC(N)=O)C(=O)N[C@@H](CCCNC(=N)N)C(=O)N[C@@H](C)C(=O)N[C@@H](Cc1ccccc1)C(=O)N[C@H](C(=O)N[C@@H](CCC(=O)O)C(=O)N[C@@H](Cc1c[nH]c2ccccc12)C(=O)N[C@@H](CC(C)C)C(=O)N[C@@H](CC(C)C)C(=O)N[C@@H](C)C(=O)N[C@@H](CCC(N)=O)C(=O)N[C@@H](CCCCN)C(N)=O)C(C)C)C(=O)O` [Compound 48] (H-Y[Aib]QGTFTSDLSIALEKK([AEEA-AEEA-γGlu-Stearoyl])AQRAFVEWLLAQK-NH2), for which the EC50 was 0.013 nM on human GLP-1 R (setting [3]), 0.19 nM at human GCG R (setting [4]) and 0.013 nM on human GIP R (setting [5]).
`CCCCCCCCCCCCCCCC(=O)N[C@@H](CCC(=O)NCCCC[C@H](NC(=O)[C@H](CCCCN)NC(=O)[C@H](CCC(=O)O)NC(=O)[C@H](CC(C)C)NC(=O)[C@H](Cc1ccc(O)cc1)NC(=O)[C@@H](NC(=O)[C@H](CO)NC(=O)[C@H](Cc1ccc(O)cc1)NC(=O)[C@H](CC(=O)O)NC(=O)[C@H](CO)NC(=O)[C@@H](NC(=O)[C@H](Cc1ccccc1)NC(=O)[C@@H](NC(=O)CNC(=O)[C@H](CCC(N)=O)NC(=O)C(C)(C)NC(=O)[C@@H](N)Cc1ccc(O)cc1)[C@@H](C)O)[C@@H](C)O)[C@@H](C)CC)C(=O)N[C@@H](C)C(=O)N[C@@H](C)C(=O)N[C@@H](CCCCN)C(=O)N[C@@H](CCC(=O)O)C(=O)N[C@@H](Cc1ccccc1)C(=O)N[C@H](C(=O)N[C@@H](CCC(=O)O)C(=O)N[C@@H](Cc1c[nH]c2ccccc12)C(=O)N[C@@H](CC(C)C)C(=O)N[C@@H](CC(C)C)C(=O)N[C@@H](CO)C(=O)N[C@@H](C)C(N)=O)C(C)C)C(=O)O` [Compound 23] (HELM PEPTIDE1{Y.[Aib].Q.G.T.F.T.S.D.Y.S.I.Y.L.E.K.K.A.A.K.E.F.V.E.W.L.L.S.A.[am]}|PEPTIDE2{[CCCCCCCCCCCCCCCC(=O)[*:2]].[gGlu]}$PEPTIDE1,PEPTIDE2,17:R3-2:R2$$$V2.0): the 50% effective concentration (EC50) on human GLP-1 R (Table 2) came to 0.11 nM; on human GCG R (Table 2, average EC50, cAMP, HEK293 cells expressing human GCG R, read-out: GCG R (EC50 in nM)) it was 0.14 nM; on human GIP R (Table 2, average EC50, cAMP, read-out: GIP R (EC50 in nM)) it was 0.13 nM.
In the case of `CC(C)C[C@H](NC(=O)[C@H](CC(C)C)NC(=O)[C@H](Cc1c[nH]c2ccccc12)NC(=O)[C@H](CCC(=O)O)NC(=O)[C@@H](NC(=O)[C@H](Cc1ccccc1)NC(=O)[C@H](CC(=O)O)NC(=O)[C@H](Cc1c[nH]cn1)NC(=O)[C@H](C)NC(=O)[C@H](C)NC(=O)[C@H](CCCCN)NC(=O)[C@H](CO)NC(=O)[C@H](CC(=O)O)NC(=O)[C@H](CC(C)C)NC(=O)[C@H](Cc1ccc(O)cc1)NC(=O)[C@H](CCCCN)NC(=O)[C@H](CO)NC(=O)[C@H](Cc1ccc(O)cc1)NC(=O)[C@H](CC(=O)O)NC(=O)[C@H](CO)NC(=O)[C@@H](NC(=O)[C@H](Cc1ccccc1)NC(=O)[C@@H](NC(=O)CNC(=O)[C@H](CCC(N)=O)NC(=O)[C@H](CO)NC(=O)[C@@H](N)Cc1ccc(O)cc1)[C@@H](C)O)[C@@H](C)O)C(C)C)C(=O)N[C@@H](CCCNC(=N)N)C(=O)N[C@@H](C)C(N)=O` [Compound 1] (H-YSQGTFTSDYSKYLDSKAAHDFVEWLLRA-NH2), the EC50 on human GLP-1 R (Table 2) turned out to be 0.033 nM; on human GLP-1 R (setting [3]), 0.013 nM; at human GCG R, 0.013 nM; on human GIP R (setting [1]) it was 0.38 nM; at human GIP R (setting [2]), 0.033 nM.
In the case of `CCCCCCCCCCCCCCCCCC(=O)N[C@@H](CCC(=O)NCCOCCOCC(=O)NCCOCCOCC(=O)NCCCC[C@H](NC(=O)[C@H](CCCCN)NC(=O)[C@H](CCC(=O)O)NC(=O)[C@H](CC(C)C)NC(=O)[C@H](Cc1ccc(O)cc1)NC(=O)[C@@H](NC(=O)[C@H](CO)NC(=O)[C@H](Cc1ccc(O)cc1)NC(=O)[C@H](CC(=O)O)NC(=O)[C@H](CO)NC(=O)[C@@H](NC(=O)[C@H](Cc1ccccc1)NC(=O)[C@@H](NC(=O)CNC(=O)[C@H](CCC(N)=O)NC(=O)C(C)(C)NC(=O)[C@@H](N)Cc1ccc(O)cc1)[C@@H](C)O)[C@@H](C)O)[C@@H](C)CC)C(=O)N[C@@H](C)C(=O)N[C@@H](C)C(=O)N[C@@H](CCCCN)C(=O)N[C@@H](CCC(=O)O)C(=O)N[C@@H](Cc1ccccc1)C(=O)N[C@H](C(=O)N[C@@H](CCC(=O)O)C(=O)N[C@@H](Cc1c[nH]c2ccccc12)C(=O)N[C@@H](CC(C)C)C(=O)N[C@@H](CC(C)C)C(=O)N[C@@H](CO)C(=O)N[C@@H](C)C(=O)NCC(=O)N1CCC[C@H]1C(=O)N[C@@H](CO)C(=O)N[C@@H](CO)C(=O)NCC(=O)N[C@@H](C)C(=O)N1CCC[C@H]1C(=O)N1CCC[C@H]1C(=O)N1CCC[C@H]1C(=O)N[C@@H](CO)C(N)=O)C(C)C)C(=O)O` [Compound 37] (H-Y[Aib]QGTFTSDYSIYLEKK([AEEA-AEEA-γGlu-Stearoyl])AAKEFVEWLLSAGPSSGAPPPS-NH2), the 50% effective concentration (EC50) at human GCG R (setting [4]) was determined as 0.014 nM; at human GIP R (setting [5]), 0.018 nM.

(Values after US10131702B2, “Glucagon-GLP-1-GIP triple agonist compounds” (priority 2013, dated 2018).)
